Results as given in publication PMC5703966, “Systemic clearance and brain distribution of carbazole-based cyanine compounds as Alzheimer’s disease drug candidates” (Scientific Reports, 2017).
Like-named read-outs stand apart in the source and are kept apart here.

Tests used:
OATP1B1 = molecular target: T1, OATP1B1 (Homo sapiens, UniProt Q9Y6L6); assay: OATP substrate identification, uptake in stably transfected HEK293 cells; settings: 1 and 10 μM, 10 mins
T1 sequence (Q9Y6L6 1-691): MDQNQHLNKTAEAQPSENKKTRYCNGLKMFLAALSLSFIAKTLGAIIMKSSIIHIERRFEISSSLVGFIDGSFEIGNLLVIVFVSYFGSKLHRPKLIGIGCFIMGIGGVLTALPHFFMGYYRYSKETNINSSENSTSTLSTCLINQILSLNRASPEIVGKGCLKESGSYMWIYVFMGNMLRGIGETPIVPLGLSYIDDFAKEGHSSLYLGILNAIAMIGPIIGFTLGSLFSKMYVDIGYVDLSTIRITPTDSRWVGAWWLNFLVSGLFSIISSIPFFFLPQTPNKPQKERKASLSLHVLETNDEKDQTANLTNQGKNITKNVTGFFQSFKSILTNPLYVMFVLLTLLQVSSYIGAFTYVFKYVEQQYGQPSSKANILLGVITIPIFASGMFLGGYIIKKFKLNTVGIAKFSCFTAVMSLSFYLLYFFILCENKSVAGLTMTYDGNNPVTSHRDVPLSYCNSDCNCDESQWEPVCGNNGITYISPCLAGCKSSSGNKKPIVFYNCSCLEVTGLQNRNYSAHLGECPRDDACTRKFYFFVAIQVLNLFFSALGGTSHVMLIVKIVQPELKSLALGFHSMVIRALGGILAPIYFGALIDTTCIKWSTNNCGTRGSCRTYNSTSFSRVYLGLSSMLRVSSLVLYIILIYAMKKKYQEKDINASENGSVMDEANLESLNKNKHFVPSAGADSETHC
Method: (§1) Daily changes of medium were performed and on the second day after seeding using medium containing 10 mM sodium butyrate.
(§2) Stably transfected HEK cells and control vector-transfected HEK293 cells were first washed (3 × 1 mL) with prewarmed HBSS (pH 7.4) and then were incubated with 250 μL of HBSS containing compounds at concentrations of 1 and 10 μM. Cells were incubated for 10 mins at 37 °C for all experiments. After incubation, uptake was stopped by aspirating the incubation solution and washing each well 3 times with 200 μL of ice-old HBSS. The cells were lysed in 150 μL of 1 M NaOH for 30 mins, and then neutralized by adding equal volumes of 1 M HCl.
(§3) The following equations (3 and 4) were used to calculate the uptake rates (U, pmol/mg/min) and the OATP1B1, OATP1B3, OATP2B1 and OATP1A2 uptake ratio (UR):3 U=Clysate/P×T 4 UR=UOATP1B1/1B3/2B1/1A2/UHEK293−MOCK where C lysate is the compound concentration in cell lysates. P is the protein concentration in cell lysates. T is the incubation time. U OATP1B1/1B3/2B1/1A2 is the uptake rate obtained in HEK293 stably transfected OATP1B1, OATP1B3, OATP2B1 or OATP1A2 transportation. U HEK293-MOCK is the uptake rate obtained in control vector-transfected HEK293 transportation.

OATP1A2 = molecular target: T2, OATP1A2 (Homo sapiens, UniProt P46721); assay: as above; settings: 1 and 10 μM, 10 mins
T2 sequence (P46721 1-670): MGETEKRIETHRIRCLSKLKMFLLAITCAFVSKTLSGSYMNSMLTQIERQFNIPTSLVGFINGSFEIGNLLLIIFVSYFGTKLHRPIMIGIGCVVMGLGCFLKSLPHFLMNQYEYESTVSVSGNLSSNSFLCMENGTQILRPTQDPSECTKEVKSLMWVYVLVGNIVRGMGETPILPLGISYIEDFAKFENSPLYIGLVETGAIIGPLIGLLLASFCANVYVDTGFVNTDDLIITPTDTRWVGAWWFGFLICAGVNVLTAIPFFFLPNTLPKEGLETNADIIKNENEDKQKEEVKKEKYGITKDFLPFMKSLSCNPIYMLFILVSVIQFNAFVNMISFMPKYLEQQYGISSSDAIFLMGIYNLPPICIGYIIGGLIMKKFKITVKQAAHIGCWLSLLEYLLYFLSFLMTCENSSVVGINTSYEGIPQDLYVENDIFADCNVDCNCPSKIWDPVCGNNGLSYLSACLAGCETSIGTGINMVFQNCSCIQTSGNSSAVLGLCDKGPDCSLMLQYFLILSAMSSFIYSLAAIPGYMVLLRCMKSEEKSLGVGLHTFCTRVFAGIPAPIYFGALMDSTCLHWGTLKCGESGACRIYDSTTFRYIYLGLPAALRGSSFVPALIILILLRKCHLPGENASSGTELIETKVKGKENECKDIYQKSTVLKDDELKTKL
Method: as §1, §2, §3

Aβ = system: Aβ; set-up: method as in PMID 22086555; settings: cited from earlier work
[1] = Liver microsomes stability with UDPGA and alamethacin (glucuronidation); format: in vitro ADME; settings: 0.5 mg/mL microsomes protein, read-out: t 1/2 in liver microsomes with UDPGA and alamethacin
Description: Microsomes and hepatocytes stability procedures and their parameters (the apparent intrinsic clearance (Cl int,app), unbound apparent intrinsic clearance (Cl u, int,app), scaled intrinsic clearance (Cl int,scaled), unbound scaled intrinsic clearance (Cl u, int,scaled), and Cl hep) calculation methods were shown in supplemental information (Supplemental Methods). The metabolites identification methods including LC-MS conditions was also found in supplemental information (Supplemental Methods). Several marker compounds as quality control were assayed (Table S6).
MS/MS. Natural logarithm of peak area ratios (compound peak area normalized by IS peak area) were plotted against time and half-life calculated. […]
In vitro stability in liver microsomes and hepatocytes
Half-life (t1/2) of SLM or SLOH in liver microsomes was determined in duplicate. In phase I reaction, the compound (1 μM) was incubated with liver microsomes (0.5 mg/mL) in 100 mM sodium phosphate buffer (pH 7.4) including 81 mM Na2HPO4 and 19 mM NaH2PO4 ) at 37 °C, the reaction mixture was prewarmed at 37 °C for 2 minutes before adding NADPH (1.0 mM). In phase II reaction, the compound (1 μM) was incubated with liver microsomes (0.5 mg/mL) in 100 mM Tris-HCl buffer (pH 7.4) containing 5 mM MgCl2, 10 μg/mL alamethicin, and 2% (w/v) BSA. After pre-incubated on ice for 15 min, the reactions were initiated with the addition of UDPGA (5.0 mM). Aliquots of the reaction mixture at 0, 5, 10, 15, 30 or 45 minutes were added to 4 folds acetonitrile (ACN) containing internal standard (IS), and the samples were centrifuged at 9,659 g for 5 mins before LC-MS/MS analysis of substrate […]
disappearance. […]
Hepatocytes were suspended at 0.5 × 10^6 viable cells/mL of HT Medium and prewarmed at 37 °C for 10 minutes. Incubations were initiated with the addition of SLM and SLOH (final concentration=1 μM) and were conducted at 37 °C, 75% relative humidity, and 5% CO2. The reaction was stopped at 0, 5, 15, 30, 60, 90, 120 minutes by the addition of 4 folds ACN containing berberine chloride as internal standard

uptake by OATP1B1 transfected HEK293 versus WT cells (OATP1B1) | uptake by OATP1A2 transfected HEK293 versus WT cells (OATP1A2) | half-life at 1 μM ([1]; ICR/CD-1, mouse, pH 7.4, mice) [h] | half-life at 1 μM ([1]; pH 7.4, human) [h] | Structure (SMILES) | reduction of Aβ fibrillogenesis in vitro (Aβ)
no significant differences | no significant differences | > 8.33 | > 8.33 | COCCOCCn1c2ccccc2c2cc(/C=C/c3cc[n+](CCO)c4ccccc34)ccc21 [SLOH, (E)-1-(2-hydroxyethyl)-4-(2-(9-(2-(2-metho-xyethoxy)-ethyl)-9H-carbazol-3-yl)vinyl) quinolin-1-ium chloride] | reduce Aβ fibrillogenesis significantly
no significant differences | no significant differences | > 8.33 | > 8.33 | COCCOCCn1c2ccccc2c2cc(/C=C/c3cc[n+](C)c4ccccc34)ccc21.[I-] [SLM, (E)-4-(2-(9-(2-(2-methoxyethoxy)ethyl)-9H-carbazol-3-yl)-vinyl)-1-methyl-quinolin-1-iumiodide] | reduce Aβ fibrillogenesis significantly
